Biological target: T1, BSA (Bos taurus, UniProt P02769)
T1 construct: purchased Sigma Aldrich
Experiment: ATR-FTIR Amide I deconvolution, secondary structure of BSA with peptide
Parameters: species or system bovine
Details: for Random Coil of BSA / β-Anti of BSA / β-Sheet of BSA / β-Turn of BSA / α-Helix of BSA: ATR-FTIR Amide I
Text: The perturbation in protein structure conformation can be monitored by CD spectroscopy as well as the ATR-FTIR method. These secondary structure changes are confirmation of the interaction between the studied compound and the protein [64, 65, 66, 67]. The range of the wavenumber from 1700 to 1000 cm^−1 is the most varied region and with the richest information on protein spectra. The most characteristic bands are Amide I and Amide II, which originate from the C=O stretching vibration and C–N– stretching coupled with N–H bending, respectively. Amide I was detected for BSA at 1652 cm^−1 and GGF at 1637 cm^−1 (Figure 4). The differences in the position of these bands are connected with the variety in the secondary structure conformation, while Amide II consistently occurred at 1545 and 1546 cm^−1 on the BSA and GGF spectra, respectively (Figure 4). The much less intense peak of Amide III usually accrued by C–N– stretching and bending vibration was only noticed in the BSA spectrum at 1307 cm^−1 (Figure 4). The peaks detected at 1454 cm^−1 (BSA) and 1452 cm^−1 (GGF) appeared by CH3 group symmetric and asymmetric bending vibration (δs, δas). The absorption signal 1400 cm^−1 may be assigned to stretching vibration (ν) caused by the carboxylic group (COO^−). The studied peptides interact with BSA and GGF, which is manifested by a reduction in the intensity of the absorption peaks (Figure 4). With the increase in the ligand concentration in the protein solution, the intensity of the absorption peaks decreased (Figure 4). The Amide I and II in the BSA spectrum decreased above all after binding with L1 and slightly in the samples from L2 and L3. […] Moreover, after the complexation of the investigated peptides with GGF, an increase in the band 1060 cm^−1 was responsible for stretching vibration C–O absorption, which was manifested the most by L2 and L3 compounds.
The shape and intensity variation in the Amide I band is the confirmation of peptide L1, L2, and L3 interaction with the protein’s backbone. The hydrogen bonds in the protein structure are violated after the active molecules’ binding and influence the frequency of the C=O vibrations’ absorption. The frequency of stretching vibrations can be reduced after changes in hydrogen bonding in the protein, whereas the frequency of bending vibrations can be increased after ligand to protein complexation. The Byler and Susi procedure was used to analyse the secondary structure protein conformation. The quantity analysis of the secondary structure in the protein is mostly conducted based on Amide I deconvolution, and it is the most frequently analyzed vibration band, which is very vulnerable to the detection of changes in the structure. The fragment of each normalized spectrum with the Amide I peak was extracted and a second derivate was made. The self-deconvolution and curve fitting by the Gaussian/Lorenzian function allowed determination of the intensity and total area under the peaks, which corresponds with the contribution of the type of structure. The position of each band component may be assigned to a corresponding shape of the secondary structure: the α-helix (1660–1647 cm^−1), β-sheet (1640–1610 cm^−1), β-turn (1660–1680 cm^−1), β-antiparallel (1681–1695 cm^−1), and random coil (1650–1630 cm^−1) structures.
The infrared spectra were measured on Nicolet iS50 FTIR (Thermo Scientific, Waltham, MA, USA) spectrometer equipped with Attenuated Total Reflectance (ATR) accessory. The deuterated triglicyne sulphate (DTGS) detector and KBr beam splitter were applied. The spectral data were recorded within the range of 4000 to 600 cm^−1 with a resolution of 4 cm^−1 and 100 scans were averaged for each spectrum. The measurements were accomplished at room temperature. The concentration of blood plasma proteins BSA (Sigma Aldrich, USA), and GGF (Sigma Aldrich, USA) were 6.5 × 10^−4 moldm^−3. […]

T1 sequence (P02769 25-607): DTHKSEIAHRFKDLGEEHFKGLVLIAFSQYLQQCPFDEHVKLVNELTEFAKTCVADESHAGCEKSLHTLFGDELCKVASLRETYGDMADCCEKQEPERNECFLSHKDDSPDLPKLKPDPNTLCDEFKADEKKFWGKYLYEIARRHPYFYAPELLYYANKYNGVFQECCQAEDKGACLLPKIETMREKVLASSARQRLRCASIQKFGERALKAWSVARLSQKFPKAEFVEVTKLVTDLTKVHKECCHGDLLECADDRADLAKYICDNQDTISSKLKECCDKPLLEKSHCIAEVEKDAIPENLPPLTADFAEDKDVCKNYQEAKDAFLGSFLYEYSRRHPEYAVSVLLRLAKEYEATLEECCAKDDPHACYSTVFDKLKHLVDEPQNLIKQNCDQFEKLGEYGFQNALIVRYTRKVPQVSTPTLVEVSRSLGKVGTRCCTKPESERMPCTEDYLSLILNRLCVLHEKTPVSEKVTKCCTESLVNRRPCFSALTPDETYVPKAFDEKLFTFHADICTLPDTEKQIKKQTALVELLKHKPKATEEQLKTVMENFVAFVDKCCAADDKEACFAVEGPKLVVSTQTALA

Substance: Lys-Dab-Dab-Gly-Orn-Pro-His-Lys-Arg-Lys-Dbt [L1]
- Random Coil of BSA (BSA/peptide 1:0.5): 26.54%
- β-Anti of BSA (BSA/peptide 1:0.5): 0.77%
- β-Sheet of BSA (BSA/peptide 1:0.5): 3.87%
- β-Turn of BSA (BSA/peptide 1:0.5): 7.47%
- α-Helix of BSA (BSA/peptide 1:0.5, BSA 6.5 × 10^−4 M, room temperature): 61.36%
- Random Coil of BSA (BSA/peptide 1:1.0): 27.93%
- α-Helix of BSA (BSA/peptide 1:1.0): 49.45%
- β-Anti of BSA (BSA/peptide 1:1.0): 0.49%
- β-Sheet of BSA (BSA/peptide 1:1.0): 8.28%
- β-Turn of BSA (BSA/peptide 1:1.0): 13.86%
- Random Coil of BSA (BSA/peptide 1:1.5): 27.61%
- α-Helix of BSA (BSA/peptide 1:1.5): 49.40%
- β-Anti of BSA (BSA/peptide 1:1.5): 0.31%
- β-Sheet of BSA (BSA/peptide 1:1.5): 8.69%
- β-Turn of BSA (BSA/peptide 1:1.5): 13.99%
- differences in the secondary structure of BSA (ATR-FTIR, after peptide addition): 16%
- decrease of β-antiparallel framework of albumin (ATR-FTIR, versus free BSA): about 2%
- growth of β-sheet of albumin (ATR-FTIR, versus free BSA): 7.05%
- growth of β-turn of albumin (ATR-FTIR, versus free BSA): 7.34%
- increase in the share of the random structure of albumin (ATR-FTIR, versus free BSA): 2%
- reduction in the α-helix of albumin (ATR-FTIR, versus free BSA): more than 14%
